# Test results published in patent publication US20160296511A1, “LAQUINIMOD FOR REDUCING THALAMIC DAMAGE IN MULTIPLE SCLEROSIS” (Teva Pharmaceutical Industries, Ltd., priority 2012, published 2016).
# Marks after values point to notes of the source that are not given here.
# Tests used:
# subjects with RRMS [1] = test: ALLEGRO sub-study: WM, GM and thalamic volume analysis (3D T1-weighted MRI); type: in vivo, human; conditions: for Grey matter fraction, % change, median (range) / Thalamic fraction, % change, LS mean (SE) / White matter fraction, % change, median (range): laquinimod 0.6 mg/day oral; for Grey matter fraction, treatment effect (Hodges-Lehmann median estimate for treatment difference) / Thalamic fraction, treatment effect (LS mean difference) / White matter fraction, treatment effect (Hodges-Lehmann median estimate for treatment difference): laquinimod vs placebo; for Treatment effect of laquinimod on thalamic fraction: patients with thalamic lesions at baseline
# Description: WM, GM, and thalamic volumes were derived from 3D T1-weighted images at baseline and at months 12 and 24. Patients with baseline and at least one valid scheduled post-baseline MRI were included in the analysis. Patients with thalamic lesions at baseline and a valid post-baseline MRI were included in the thalamic lesion analysis. Longitudinal WM and GM volume changes were calculated as the percentage difference from baseline to months 12 and 24. A separate calculation was performed between months 12 and 24. […] The ANCOVA (SAS® PROC GLM) model used treatment group, baseline value of the outcome, number of GdE lesions at baseline and country/geographic region, as covariates. Additionally, analyses of percentage changes in WM volume were also adjusted for GM volume at baseline due to the imbalance that was found between treatment groups at baseline. The Hodges-Lehmann (HL) large sample median estimator associated with the ranked values analysis approach was used to construct two-sided 95% confidence limits for the difference in treatment effects. Percent thalamic volume changes from baseline to months 12 and 24 followed normal distribution and thus were analysed using a parametric MMRM (SAS® PROC MIXED) model corrected for baseline thalamic volume, number of baseline GdE lesions, country/geographic region, visit, treatment and visit by treatment interaction. The least square (LS) mean difference was used to estimate treatment effect. As noted for the % change in WM and GM volumes, percent thalamic volume change from month 12 to month 24 was analyzed using a separate analysis of covariance (ANCOVA) (SAS® PROC GLM) model, since these values […] from the MMRM model. The ANCOVA model used treatment group, baseline thalamic volume, number of baseline GdE lesions and country/geographic region, as covariates. GM at baseline was used as an additional covariate to account for between treatment group imbalance in this measure at baseline.
# subjects with RRMS [2] = test: ALLEGRO sub-study: 1H-MRS, NAA/Cr ratio in WM; type: in vivo, human; conditions: at 24 months; difference vs placebo not statistically significant (p=0.179), N=27
# Description: • 1. Frequent MRI (selected countries and sites only): The cumulative number of T1-Gd enhancing lesions taken from scans obtained at months 0, 3, 6, 12, and 24, and in case the study is be extended, 30. Additional MRIs for the ancillary study are performed at months 3 and 6. • 2. Magnetization Transfer (MT) (selected countries and sites only): the change from baseline to month 12 and 24/30 months in magnetization transfer MRI. MT was assessed at months 0 (baseline), 12 and 24 (termination/early discontinuation). In case of the 6 months extended study, the last MT was performed at month 30 (termination/early discontinuation of the extended study) instead of month 24. • 3. Proton MR Spectroscopy (^1H-MRS) (selected countries and sites only): Change from baseline to 24/30 in ^1H-MRS metabolites. ^1H-MRS was assessed at months 0 (baseline), and 24 (termination/early discontinuation). In case of the 6 months extended study, the last ^1H-MRS was performed at month 30 (termination/early discontinuation of the extended study) instead of month 24. • 4. Pharmacogenetic (PGx) assessment: Blood samples for PGx parameters were collected from all subjects at screening. • 5. […] Changes in NAA/Cr from baseline to month 24 was analyzed using ANCOVA.
smiles,measurement,setting,value
CCN(C(=O)c1c(O)c2c(Cl)cccc2n(C)c1=O)c1ccccc1 [Laquinimod],"Grey matter fraction, % change, median (range)",subjects with RRMS [1]; baseline to month 12,−0.3 (−19.4 to 22.4) %
same,"Thalamic fraction, % change, LS mean (SE)",subjects with RRMS [1]; baseline to month 12,−0.6 (0.12) %
same,"White matter fraction, % change, median (range)",subjects with RRMS [1]; baseline to month 12,0.0 (−24.7 to 11.9) %
same,"Grey matter fraction, treatment effect (Hodges-Lehmann median estimate for treatment difference)",subjects with RRMS [1]; baseline to month 12,0.502* %
same,"Thalamic fraction, treatment effect (LS mean difference)",subjects with RRMS [1]; baseline to month 12,0.408^† %
same,"White matter fraction, treatment effect (Hodges-Lehmann median estimate for treatment difference)",subjects with RRMS [1]; baseline to month 12,0.394* %
same,"Grey matter fraction, % change, median (range)",subjects with RRMS [1]; baseline to month 24,−0.9 (−17.4 to 21.2) %
same,"Thalamic fraction, % change, LS mean (SE)",subjects with RRMS [1]; baseline to month 24,−1.3 (0.15) %
same,"White matter fraction, % change, median (range)",subjects with RRMS [1]; baseline to month 24,−0.3 (−27.3 to 19.2) %
same,"Grey matter fraction, treatment effect (Hodges-Lehmann median estimate for treatment difference)",subjects with RRMS [1]; baseline to month 24,0.372* %
same,"Thalamic fraction, treatment effect (LS mean difference)",subjects with RRMS [1]; baseline to month 24,0.60^† %
same,"White matter fraction, treatment effect (Hodges-Lehmann median estimate for treatment difference)",subjects with RRMS [1]; baseline to month 24,0.327* %
same,"Grey matter fraction, % change, median (range)",subjects with RRMS [1]; month 12 to month 24,−0.7 (−11.5 to 16.6) %
same,"Thalamic fraction, % change, LS mean (SE)",subjects with RRMS [1]; month 12 to month 24,−0.7 (0.13) %
same,"White matter fraction, % change, median (range)",subjects with RRMS [1]; month 12 to month 24,−0.2 (−15.3 to 15.0) %
same,"Grey matter fraction, treatment effect (Hodges-Lehmann median estimate for treatment difference)",subjects with RRMS [1]; month 12 to month 24,−0.078* %
same,"Thalamic fraction, treatment effect (LS mean difference)",subjects with RRMS [1]; month 12 to month 24,0.233^† %
same,"White matter fraction, treatment effect (Hodges-Lehmann median estimate for treatment difference)",subjects with RRMS [1]; month 12 to month 24,−0.013* %
same,Treatment effect of laquinimod on thalamic fraction,subjects with RRMS [1]; 12 months (p=0.018),statistically significant
same,Treatment effect of laquinimod on thalamic fraction,subjects with RRMS [1]; 24 months (p<0.0001),statistically significant
same,Treatment effect of laquinimod on thalamic fraction change vs placebo,"subjects with RRMS [1]; patients without T2 thalamic lesions at baseline, month 12 or 24",not significantly different
same,WM NAA/Cr ratio,subjects with RRMS [2],tended to increase
